Consider 14 molecules from PMC7139904, “Structural Requirements of Benzofuran Derivatives Dehydro-δ- and Dehydro-ε-Viniferin for Antimicrobial Activity Against the Foodborne Pathogen Listeria monocytogenes” (International Journal of Molecular Sciences, 2020).

Molecules are shown by their SMILES. ≈ marks a conversion by molar mass, not a printed value. Entries after “also recorded” stand apart in the source; their conditions may differ. Like-named read-outs stand apart in the source and are kept apart here. Marks after values point to notes of the source that are not given here.

One series deals with L. monocytogenes Scott A. In words: Minimal inhibitory concentration (MIC) and minimal bactericidal concentration (MBC), 96-well plate broth assay. It counts as cell-based, Listeria monocytogenes. The settings on record: for MBC: value in brackets. How it is done:
All synthesized derivatives were stored in dry form at -20 °C and dissolved in DMSO at a final concentration of 4.096 mg/mL prior to their use in the MIC and MBC determination. Briefly, L. monocytogenes was cultivated in Brain […] Infusion (BHI) broth (Sigma, Italy) at 37 °C for 24 h under a shaking condition (200 rpm). After the growth, the cells were diluted in BHI to 0.2 OD 600 nm and then used for the 96-well plate inoculum. The concentrations tested ranged from 1 up to 512 μg/mL. The assay was carried out in triplicate in a 96-well plate, according to Mattio et al., 2019 [4].

For a further series, the system named is WS1 fibroblast cells. Nature of the series: Cytotoxicity, growth inhibition assay (MTS) on normal skin fibroblasts. It counts as cell-based, human. The note with it: for IC50: WS1 cells, 48 h exposure, MTS assay, mean ± SD of three independent experiments; for Selectivity: concentration with cytotoxic effects on WS1 relative to MIC against L. monocytogenes: WS1 IC50 (µM) compared with MIC (µM) on L. monocytogenes Scott A. How it is done: (§1) The normal human skin WS1 fibroblast cells (ATCC CRL-1502) were cultured in Eagle’s Minimum Essential Medium plus 10% fetal bovine serum at 37 °C and 5% CO2. Cytotoxic potency was assessed by a growth inhibition assay (CellTiter 96® AQueous One Solution Cell Proliferation Assay MTS, Promega). The cells were seeded in a 96-well plate, and 24 h later were exposed to the compounds (concentration range 1−200 μM). After 48 h of exposure, 20 μL of 3-(4,5-dimethylthiazol-2-yl)-5-(3-carboxymethoxyphenyl)-2-(4-sulfophenyl)-2H-tetrazolium salt was added to each well. The absorbance was measured using a FLUOstar OPTIMA plate reader (BMG Labtech GmbH, Offenburg, Germany) at 492 nm after 4 h of incubation at 37 °C in 5% CO2. The IC50 was defined as the drug concentration causing 50% cell growth inhibition, determined by the dose−response curves. Experiments were performed in triplicate.

Assay in series [1]: as above
The series is classed as cell-based, human. The note with it: human, WS1 normal skin fibroblast cells; WS1 IC50 (µM) compared with MIC (µM) on L. monocytogenes Scott A; read-out: Selectivity: concentration with cytotoxic effects on WS1 relative to MIC against L. monocytogenes. How it is done:
as §1

The subject of series [2] is L. monocytogenes LMG 16,779. Further details: method as in PMID 26867522. The settings on record: cited from earlier work.
Setting [3] is: Listeria monocytogenes, BHI broth, tested 1 up to 512 µg/mL, triplicate, read-out: MIC.
Setting [4] is: Listeria monocytogenes, MIC as µM concentration, read-out: MIC.
Setting [5] is: Listeria monocytogenes, tested 1 up to 512 µg/mL, triplicate, read-out: MBC.
Where [6] appears, read: Listeria monocytogenes, 24 h, BHI broth, tested 1 up to 512 µg/mL, triplicate, read-out: MIC.
Where [7] appears, read: BHI broth, tested 1 up to 512 µg/mL, triplicate.
Setting [8] is: MIC as µM concentration, read-out: MIC.
Where [9] appears, read: tested 1 up to 512 µg/mL, triplicate.

Consider `[H]/N=C(\N/C(=N/[H])NCCCCCCNC(=N)NC(=N)Nc1ccc(Cl)cc1)Nc1ccc(Cl)cc1` [Chlorhexidine, reference compound], for which the results for the MIC in the series with L. monocytogenes Scott A (setting [3]) and in the series on L. monocytogenes Scott A (setting [4]) were 8 µg/mL and 15.8 µM, respectively. In the series with L. monocytogenes Scott A (setting [5]), the MBC amounted to 32 µg/mL (≈ 63.3 µM).

On to `Oc1ccc(-c2oc3ccc(/C=C/c4cc(O)cc(O)c4)cc3c2-c2cc(O)cc(O)c2)cc1` [Compound 1, dehydro-δ-viniferin], for which the MIC came to 2 µg/mL in the series with L. monocytogenes Scott A (setting [6]), 2 µg/mL in the series with L. monocytogenes Scott A (setting [3]) and 4.42 µM in the series with L. monocytogenes Scott A (setting [4]). Further, the MBC with L. monocytogenes Scott A (setting [5]) was found to be 16 µg/mL (≈ 35.4 µM). The IC50 with WS1 fibroblast cells (Homo sapiens, WS1, 48 h) worked out at 37 ± 1.4 µM. Besides, the selectivity ratio at 48 h in series [1] is about 10.

Consider `Oc1ccc(/C=C/c2cc(O)cc3oc(-c4ccc(O)cc4)c(-c4cc(O)cc(O)c4)c23)cc1` [Compound 2, viniferifuran], for which the MIC in the series on L. monocytogenes Scott A (setting [6]) turned out to be 16 µg/mL; in the series on L. monocytogenes Scott A (setting [3]), 16 µg/mL; with L. monocytogenes Scott A (setting [4]), 35.4 µM. Moreover, the MBC in the series with L. monocytogenes Scott A (setting [5]) was over 512 µg/mL. Also, in the series on WS1 fibroblast cells (Homo sapiens, WS1, 48 h), the IC50 was 33 ± 1.4 µM.

In the case of `Oc1ccc(-c2oc3ccccc3c2-c2cc(O)cc(O)c2)cc1` [Compound 3], the MIC with L. monocytogenes Scott A (setting [6]) stood at 16 µg/mL; with L. monocytogenes Scott A (setting [3]), 16 µg/mL; with L. monocytogenes Scott A (setting [4]) it was 50.3 µM. The MBC in the series on L. monocytogenes Scott A (setting [5]) was determined as 64 µg/mL (≈ 201 µM). The IC50 in the series on WS1 fibroblast cells (Homo sapiens, WS1, 48 h) stood at 98.7 ± 1.8 µM. For the same molecule, the “Selectivity: concentration with cytotoxic effects on WS1 relative to MIC against L. monocytogenes” value in the series on WS1 fibroblast cells is on record as “two-fold higher; also recorded: at least two-times higher”.

With `Oc1ccc(-c2cc3cc(/C=C/c4cc(O)cc(O)c4)ccc3o2)cc1` [Compound 4], the “Antimicrobial activity, result in words” value in the series with L. monocytogenes Scott A is “completely inactive”. The MIC with L. monocytogenes Scott A (setting [6]) was found to be 256 µg/mL; with L. monocytogenes Scott A (setting [3]), 256 µg/mL; with L. monocytogenes Scott A (setting [4]), 743 µM. For the same molecule, in the series with L. monocytogenes Scott A (setting [5]), the MBC is over 512 µg/mL. In the series with WS1 fibroblast cells (Homo sapiens, WS1, 48 h), this molecule had an IC50 of 97.8 ± 3 µM.

As to `Oc1cc(O)cc(/C=C/c2ccc3occ(-c4cc(O)cc(O)c4)c3c2)c1` [Compound 5], the MIC came to 16 µg/mL in the series on L. monocytogenes Scott A (setting [3]) and 44.4 µM in the series with L. monocytogenes Scott A (setting [4]). Besides, the MBC in the series on L. monocytogenes Scott A (setting [5]) amounted to 64 µg/mL (≈ 178 µM). For the same molecule, in the series on WS1 fibroblast cells (Homo sapiens, WS1, 48 h), the midpoint of inhibition, the IC50, lay at 96.8 ± 4.5 µM. Also, the “Selectivity: concentration with cytotoxic effects on WS1 relative to MIC against L. monocytogenes” value in the series with WS1 fibroblast cells is listed as “two-fold higher; also recorded: at least two-times higher”.

With `Oc1ccc(-c2oc3cc(O)ccc3c2-c2cc(O)cc(O)c2)cc1` [Compound 6], the values for the MIC in the series on L. monocytogenes Scott A (setting [6]), in the series with L. monocytogenes Scott A (setting [3]) and with L. monocytogenes Scott A (setting [4]) were 64 µg/mL, 64 µg/mL and 191 µM, respectively. In addition, the MBC in the series with L. monocytogenes Scott A (setting [5]) was over 512 µg/mL. The molecule also showed an IC50 with WS1 fibroblast cells (Homo sapiens, WS1, 48 h) of 98.5 ± 2 µM.

With `Oc1ccc(/C=C/c2cc(O)cc3occ(-c4cc(O)cc(O)c4)c23)cc1` [Compound 7], the MIC in the series on L. monocytogenes Scott A (setting [7]) was found to be 8 µg/mL; in the series on L. monocytogenes Scott A (setting [8]), 23.2 µM. In addition, the MBC in the series on L. monocytogenes Scott A (setting [9]) came to 64 µg/mL (≈ 178 µM). In the series with WS1 fibroblast cells (Homo sapiens, WS1, 48 h), this molecule displayed an IC50 of 45 ± 1.2 µM. In addition, the “Selectivity: concentration with cytotoxic effects on WS1 relative to MIC against L. monocytogenes” value in the series with WS1 fibroblast cells was “two-fold higher; also recorded: at least two-times higher”.

Regarding `Oc1ccc(/C=C/c2cc(O)cc3occ(-c4cc(O)cc(O)c4)c23)cc1` [Compound 8], the values for the MIC in the series with L. monocytogenes Scott A (setting [7]) and in the series on L. monocytogenes Scott A (setting [8]) were 64 µg/mL and 178 µM, respectively. This molecule also registered an MBC with L. monocytogenes Scott A (setting [9]) of over 512 µg/mL. In addition, in the series with WS1 fibroblast cells, the IC50 came out at 85 ± 4.6 µM.

Regarding `COc1cc(/C=C/c2ccc3oc(-c4ccc(O)cc4)cc3c2)cc(OC)c1` [Compound 9], the “Antimicrobial activity, result in words” value with L. monocytogenes Scott A was “inactive”. In addition, the MIC was over 512 µg/mL with L. monocytogenes Scott A (setting [6]), over 512 µg/mL in the series with L. monocytogenes Scott A (setting [3]) and 1370 µM with L. monocytogenes Scott A (setting [4]). For the same molecule, the MBC in the series with L. monocytogenes Scott A (setting [5]) is over 512 µg/mL; with L. monocytogenes Scott A (setting [9]), >512 (>512) µg/mL. For the same molecule, the IC50 in the series on WS1 fibroblast cells (Homo sapiens, WS1, 48 h) was 95 ± 2.3 µM.

Take `COc1ccc(-c2cc3cc(/C=C/c4cc(OC)cc(OC)c4)ccc3o2)cc1` [Compound 10]: the “Antimicrobial activity, result in words” value in the series with L. monocytogenes Scott A is “inactive”. Besides, the MIC in the series with L. monocytogenes Scott A (setting [3]) was over 256 µg/mL; in the series with L. monocytogenes Scott A (setting [4]), 662 µM. Further, the MBC in the series on L. monocytogenes Scott A (setting [5]) is over 256 µg/mL. Moreover, the IC50 in the series with WS1 fibroblast cells (Homo sapiens, WS1, 48 h) was over 100 µM.

On to `COc1ccc(-c2oc3cc(OC)ccc3c2-c2cc(OC)cc(OC)c2)cc1` [Compound 11], for which, in the series on L. monocytogenes Scott A, the “Antimicrobial activity, result in words” value was “inactive”. The values for the MIC in the series with L. monocytogenes Scott A (setting [3]) and in the series with L. monocytogenes Scott A (setting [4]) were over 256 µg/mL and 656 µM, respectively. For the same molecule, the MBC in the series on L. monocytogenes Scott A (setting [5]) is over 256 µg/mL. The IC50 with WS1 fibroblast cells (Homo sapiens, WS1, 48 h) was over 100 µM.

As for `COc1cc(/C=C/c2ccc(O)cc2)cc(OC)c1` [pterostilbene, reference compound], the MIC in the series on L. monocytogenes Scott A (setting [6]) is 64 µg/mL; in the series with L. monocytogenes Scott A (setting [3]) it was 64 µg/mL; with L. monocytogenes Scott A (setting [4]) it was 250 µM. For the same molecule, the MBC in the series on L. monocytogenes Scott A (setting [5]) turned out to be 128 µg/mL (≈ 499 µM). This molecule gave an IC50 in the series on WS1 fibroblast cells (Homo sapiens, WS1, 48 h) of 57 ± 10 µM.

For the molecule `Oc1ccc(/C=C/c2cc(O)cc(O)c2)cc1` [resveratrol], the figures for the “MIC” value in series [2] (MIC as µM concentration) and in series [2] were 876 µM (≈ 200 µg/mL) and 200 (-) ^c µg/mL, respectively. This molecule yielded an IC50 in the series with WS1 fibroblast cells (Homo sapiens, WS1, 48 h) of over 200 µM.
